Patent US20150342876A1, “METHODS AND PHARMACEUTICAL COMPOSITIONS FOR THE TREATMENT OF OCULAR INFLAMMATORY DISEASES” (Institut National de la Santé et de la Recherche Médicale …, priority 2011, published 2015)

Key:
Assay type in all cases: in vivo, Lewis rats
[1] = tested on: Endotoxin-induced uveitis; assay: Endotoxin-induced uveitis, clinical score at slit lamp; settings: for severity of uveitis (clinical examination): slit lamp 24 hours after LPS
Description: Female Lewis rats (6- to 8-week old) weighing 230-250 g (Elevage Janvier, Le Genest Saint Isle, France) were used and handled in accordance with the ARVO Statement for the Use of Animals in Ophthalmic and Vision Research. Rats were anesthetized with intramuscular injection of ketamine (75 mg kg^−1; Virbac, Carros Cedex, France) and Largactil (0.5 mg kg^−1; Sanofi-aventis, Paris, France) before ocular injection and ET. At the end of the experiments, rats were anesthetized by intraperitoneal injection of pentobarbital (30 mg kg^−1; Sanofi-aventis) before blood collection by intracardiac puncture and then killed with a lethal dose of pentobarbital.
Endotoxin-induced uveitis was induced by footpad injection of 0.1 ml sterile pyrogen-free saline containing 500 μgkg^−1 LPS (from Salmonella typhimurium; Sigma-Aldrich). Animals were examined by slit lamp during the maximal severity of EIU developing in this model 24 h after the footpad injection. The intensity of clinical ocular inflammation was scored on a scale from 0 to 5 for each eye as described previously (Behar-Cohen F F, Parel J M, Pouliquen Y, Thillaye-Goldenberg B, Goureau O, Heydolph S et al. Iontophoresis of dexamethasone in the treatment of endotoxin-induced-uveitis in rats. Exp Eye Res 1997; 65: 533-545.): grade (0) indicates no inflammation; grade 1 indicates the presence of a minimal iris and conjunctival vasodilation but without the observation of flare or cells in the anterior chamber (AC); grade 2 indicates the presence of moderate iris and conjunctival vessel dilation but without evident flare or cells in the AC; grade 3 indicates the presence of intense iris vessels dilation, flare and less than 10 cells per slit lamp field in the AC; grade 4 indicates the presence of more severe clinical signs than grade 3, with more than 10 cells in the AC with or without the formation of a hypopyon; grade 5 indicates the presence of intense inflammatory reaction, fibrin formation in the AC and total seclusion of the pupil.
Clinical evaluation was performed in a masked manner by two observers. The mean clinical score of the two observers was recorded.
Lewis rats were anesthetized by intraperitoneal injection of 0.15 mL pentobarbital (5.47 g/100 mL saline). Pupils were dilated by instillation of one drop of tropicamide 5%. One drop of tetracaine 1% was administered for local anesthesia. Intravitreal injections (10 μL) of aldosterone (20 nM and 200 nM) and spironolactone (10 μM) were performed in both eyes using sterile syringes fitted with a 30-gauge needle (Microfine; Becton Dickinson AG, Meylan, France). Intravitreal injections were performed simultaneously with EIU induction, as described.
Results are expressed as mean±SEM. The Mann-Whitney U test was used to determine differences between groups. […]

[2] = tested on: MIP1α/CCL3; assay: Chemokine/cytokine multiplex assay of ocular media in EIU: MIP1α/CCL3; settings: compared with control animals treated with the vehicle alone (FIG. 2)
Description: (§1) Aqueous humor and vitreous collected from each eye were pooled, diluted to obtain a final volume of 25 μL, and subjected to multiplex bead analysis. This method uses microspheres as the solid support for immunoassays (Vignali D A. Multiplexed particle-based flow cytometric assays. J Immunol Methods. 2000; 243:243-255.) and allows the titration of a greater number of cytokines with increased sensitivity than occurs with ELISA (Ooi K G, Galatowicz G, Towler H M, Lightman S L, Calder V L. Multiplex cytokine detection versus ELISA for aqueous humor: IL-5, IL-10, and IFNγ profiles in uveitis. Invest Ophthalmol Vis Sci. 2006; 47:272-277.). The rat cytokine/chemokine LINCO-16plex kit (Linco Research) was purchased from Invitrogen (Cergy-Pontoise, France). Chemokine MIP1α/CCL3, proinflammatory mediator TNF-α, cytokines IFN-γ/IL-4, and IL-6 were measured according to the manufacturer's instructions. The assay was performed in a 96-well filter plate with all the assay components provided in the kit. Standard curves for each cytokine were generated with a calibration kit (Bio-Rad, Hercules, Calif.). All incubation steps were performed at room temperature with medium orbital agitation and in the dark to protect the beads from light. Data acquisition and analysis were performed with the manager software version 4.1 (Bioplex; Bio-Rad) with four or five logistic parameters for standard curves. […]

[3] = tested on: TNF-α; assay: Chemokine/cytokine multiplex assay of ocular media in EIU: TNF-α; settings: compared with control animals treated with the vehicle alone (FIG. 2)
Description: as §1

[4] = tested on: IFN-γ/IL-4; assay: Chemokine/cytokine multiplex assay of ocular media in EIU: IFN-γ/IL-4; settings: compared with control animals treated with the vehicle alone (FIG. 2)
Description: as §1

[5] = tested on: IL-6; assay: Chemokine/cytokine multiplex assay of ocular media in EIU: IL-6; settings: compared with control animals treated with the vehicle alone (FIG. 2)
Description: as §1

[6] = tested on: resident microglial cells of the retina and ciliary body; assay: Anti-IBA-1 immunohistochemistry of resident microglial cells in EIU; settings: 24 h after LPS and intravitreal injection, compared to eyes injected with the vehicle
Description: To evaluate the effect of aldosterone on resident microglial cells of the retina and ciliary body, we performed immunohistochemical studies with an anti-IBA-1 antibody coupled with a secondary antibody Alexa488 on cryostat sections 24 h after LPS injection and injection intravitreal aldosterone or spironolactone. […] The anti-inflammatory effect of aldosterone may be related to the deactivation of resident microglial cells.

[7] = tested on: blood-ocular barrier; assay: Proteins present in eye fluids (leaking of the blood-ocular barrier) in EIU; settings: at 6 hours, versus vehicle
Text: Proteins present in eye fluids reflect the leaking of the blood-ocular barrier.

[8] = tested on: MR; assay: Expression of MR in the iris and ciliary body in EIU (quantitative PCR); settings: after intravitreal injection in EIU, p<0.05
Description: (§2) Iris and ciliary body tissues are most involved in the EIU. In an attempt to understand the role of MR and GR in EIU model, we evaluated the expression of these two receptors in quantitative PCR in the iris/ciliary body 3 h, 6 h and 24 h after injection of LPS. We were surprised that the kinetics of MR and GR were not similar. 3 hours after induction of EIU (p<0.001), so before the infiltration of inflammatory cells, there was a decreased expression of MR, which was maintained up to 24 hours (p<0.001). On the contrary the decreased expression of GR was later in the 24th hour (p<0.01). Immunohistochemical studies confirmed the decrease in the rate of receptors in the iris. The decreased expression of MR and GR takes place mainly in the endothelial cells of vessels in the iris and iris stromal cells. At baseline, the binding of endogenous glucocorticoids to MR likely plays a role in anti-inflammatory. The reduction of early MR can be seen as a step prior to the onset of ocular inflammation.
(§3) The expression of MR and GR in the iris and ciliary body is increased after intravitreal injection of aldosterone (p<0.05). […] Presumably, the anti-inflammatory effect of aldosterone in this model is partly due to the increased expression of MR.

[9] = tested on: GR; assay: Expression of GR in the iris and ciliary body in EIU (quantitative PCR); settings: after intravitreal injection in EIU
Description: as §2, §3

[10] = tested on: macrophages; assay: EDI positive cell counts in histological sections (immunohistochemistry) in EIU; settings: intravitreal 200 nM, 24 h after LPS, compared to eyes injected vehicle or spironolactone, p<0.05
Description: To evaluate the effect of intravitreal injection of 200 nM aldosterone and spironolactone 10 μM, immunohistochemical studies were performed on cryostat sections. An anti EDI antibody coupled with an Alexa488 secondary antibody was used to mark macrophages which are among the cells most involved in EIU. We conducted an EDI positive cell counts in histological sections 24 h after LPS injection and intravitreal injection of aldosterone or spironolactone.

Row | SMILES | intensity of uveitis (clinical examination) ([1]; intravitreal injection 10 microM, 24 hours) | MIP1α/CCL3 in the ocular media [2] | TNF-α in the ocular media [3] | IFN-γ/IL-4 in the ocular media [4] | IL-6 in the ocular media [5] | state of microglial cells (IBA-1) [6] | rate of protein in eye fluids [7] | expression of MR in the iris and ciliary body [8] | expression of GR in the iris and ciliary body [9] | severity of uveitis (clinical examination) ([1]; injection 1 nM) | severity of uveitis (clinical examination) ([1]; intravitreal injection 20 nM, p<0.05) | severity of uveitis (clinical examination) ([1]; intravitreal injection 200 nM, p<0.001) | number of macrophages (EDI positive cell counts) [10]
1 | CC(=O)S[C@@H]1CC2=CC(=O)CC[C@]2(C)[C@H]2CC[C@@]3(C)[C@@H](CC[C@@]34CCC(=O)O4)[C@H]12 [spironolactone] | increased the intensity of uveitis | significantly increased | significantly increased | significantly increased | significantly increased | larger number of microglial cells were round, and consequently active | had no effect | exacerbated the decrease in MR | has no effect | – | – | – | –
2 | C[C@]12CCC(=O)C=C1CC[C@@H]1[C@@H]2[C@@H](O)C[C@]2(C=O)[C@@H](C(=O)CO)CC[C@@H]12 [aldosterone, 11β,21-dihydroxy-3,20-dioxopregn-4-en-18-al] | – | significantly reduced | significantly reduced | significantly reduced | significantly reduced | greater number of microglial cells were then branched into a latent state | significantly reduced | increased | increased | had no effect | severity decrease statistically significant | severity decrease statistically significant | decrease in the number of macrophages
